Reference: patent publication US11231421B2, “Methods of treating multifocal cancer” (NYMOX CORPORATION, priority 2019, dated 2022)
Where no end group is shown, it is not given here.

Tests used:
[1] = system: low grade prostate cancer (Gleason grade 6); assay: Clinical study, Example 4: hemi-prostate multifocal cancer with increase in Gleason primary pattern; format: in vivo, human; settings: for % Imp.: hemi-prostate multifocal cancer with increase in Gleason primary pattern: vs control active surveillance
Procedure: (§1) In a series of clinical studies a total of 146 men with low grade prostate cancer (Gleason grade 6) were treated in the following manner. Patients were randomized and treated with a transrectal intraprostatic single injection of a composition comprising 2.5 mg FT (n=49), or a composition comprising 15 mg FT (n=48), or were subject to control active surveillance (n=49). After the first follow-up biopsy at 45 days post-randomization, 18 patients in the control active surveillance group crossed over to a single administration of a composition in which 10 patients received 2.5 mg FT, and 8 patients received 15 mg FT. Patients were followed for 5 years including biopsies at baseline, 45 days, 18, 36, and 48 months, and urological evaluations with PSA every 6 months. Patients with Gleason grade increase or who elected surgical or radiotherapeutic intervention exited the study and were still included in the data analysis. Percentage of normal biopsies in the baseline focus quadrant and median tumor grade and volume were assessed; progression was measured by clinical and pathological outcomes including Gleason grade, and Gleason grade primary pattern, in the entire prostate sampled as well as for the treated prostate lobe. Interventions associated with Gleason grade increase as well as total incidence for any conventional surgical intervention (e.g., surgery, radiotherapy, and/or chemotherapy) was assessed.

[2] = system: low grade prostate cancer (Gleason grade 6); assay: Clinical study, Example 7: cancer treatment with new multifocal with increased Gleason grade in the hemi-prostate; format: in vivo, human; settings: for % Imp.: cancer treatment with new multifocal with increased Gleason grade in the hemi-prostate: vs control active surveillance
Procedure: as §1, with “assessed. This example evaluated the percentage of patients who had conventional cancer treatment (e.g., surgery, radiotherapy, and/or chemotherapy), and who and who had multifocal prostate cancer in the lobe (or hemi-prostate) in which the foci were initially treated with Gleason upgrade (cancer treatment with new multifocal with increased Gleason grade in the hemi-prostate).” for “assessed.”

[3] = system: low grade prostate cancer (Gleason grade 6); assay: Clinical study, Example 5: cancer treatment with new multifocal with Gleason upgrade; format: in vivo, human; settings: for % Imp.: cancer treatment with new multifocal with Gleason upgrade, entire prostate: vs control active surveillance
Procedure: as §1

[4] = system: prostate glandular epithelial cells; assay: In vitro tissue culture genetic array and cell effects; format: cell-based
Description: Use of FT is a preferred embodiment. FT is a new molecular entity which in vitro stimulates caspase pathways (activation of caspases 7, 8, and 10, caspase recruitment domains 6, 11, and 14, and DIABLO), tumor necrosis factor pathways (activation of TNF1, TNFSF6, TNFSF8, TNFSF9, CD70 ligands, and TNFRSF19L, TNFRSF25, TRAF2, TRAF3, TRAF4, TRAF6 receptors), and BCL pathways (activation of BIK, HRK, BCL2L10 and BCL3) in prostate glandular epithelial cells, based on tissue culture genetic array data. […] The apoptotic process leads to typical ultrastructural progressive changes of membranous disruption and swelling, progressively deepening nuclear invaginations with eventual membranous bleb formations and cell death and fragmentation into apoptotic bodies.

[5] = system: low grade prostate cancer (Gleason grade 6); assay: Clinical study, Example 2: new multifocal with increase Gleason primary pattern in entire prostate; format: in vivo, human; settings: for % Imp.: new multifocal with increase Gleason primary pattern, entire prostate: vs control active surveillance
Procedure: as §1

[6] = FT 2.5 mg, <=18 mos from treatment
[7] = FT 2.5 mg, <=36 mos from treatment
[8] = FT 2.5 mg, <=48 mos from treatment
[9] = FT 15 mg, <=18 mos from treatment
[10] = FT 15 mg, <=36 mos from treatment
[11] = FT 15 mg, <=48 mos from treatment
[12] = Pooled FT (2.5 mg and 15 mg), <=18 mos from treatment
[13] = Pooled FT (2.5 mg and 15 mg), <=18 mos
[14] = Pooled FT (2.5 mg and 15 mg), <=36 mos from treatment
[15] = Pooled FT (2.5 mg and 15 mg), <=36 mos
[16] = Pooled FT (2.5 mg and 15 mg), <=48 mos from treatment
[17] = Pooled FT (2.5 mg and 15 mg), <=48 mos
[18] = in vitro, tissue culture genetic array data

fexapotide triflutate (IDQQVLSRIKLEIKRCL; also: trifluoroacetate salt) [FT]
percentage of patients: hemi-prostate multifocal cancer with increase in Gleason primary pattern [1, 6]: 0 (p = 0.033) %
% Imp.: hemi-prostate multifocal cancer with increase in Gleason primary pattern ([1]; FT 2.5 mg, <=18 mos): 100%
percentage of patients: hemi-prostate multifocal cancer with increase in Gleason primary pattern [1, 7]: 0 (p = 0.018) %
% Imp.: hemi-prostate multifocal cancer with increase in Gleason primary pattern ([1]; FT 2.5 mg, <=36 mos): 100%
percentage of patients: hemi-prostate multifocal cancer with increase in Gleason primary pattern [1, 8]: 0 (p = 0.037) %
% Imp.: hemi-prostate multifocal cancer with increase in Gleason primary pattern ([1]; FT 2.5 mg, <=48 mos): 100%
percentage of patients: hemi-prostate multifocal cancer with increase in Gleason primary pattern [1, 9]: 2.9%
% Imp.: hemi-prostate multifocal cancer with increase in Gleason primary pattern ([1]; FT 15 mg, <=18 mos): 76.8%
percentage of patients: hemi-prostate multifocal cancer with increase in Gleason primary pattern [1, 10]: 4.5%
% Imp.: hemi-prostate multifocal cancer with increase in Gleason primary pattern ([1]; FT 15 mg, <=36 mos): 79%
percentage of patients: hemi-prostate multifocal cancer with increase in Gleason primary pattern [1, 11]: 6.7%
% Imp.: hemi-prostate multifocal cancer with increase in Gleason primary pattern ([1]; FT 15 mg, <=48 mos): 75.5%
percentage of patients: hemi-prostate multifocal cancer with increase in Gleason primary pattern [1, 12]: 1.4 (p = 0.03) %
% Imp.: hemi-prostate multifocal cancer with increase in Gleason primary pattern [1, 13]: 88.8%
percentage of patients: hemi-prostate multifocal cancer with increase in Gleason primary pattern [1, 14]: 2.2 (p = 0.011) %
% Imp.: hemi-prostate multifocal cancer with increase in Gleason primary pattern [1, 15]: 89.7%
percentage of patients: hemi-prostate multifocal cancer with increase in Gleason primary pattern [1, 16]: 3.4 (p = 0.025) %
% Imp.: hemi-prostate multifocal cancer with increase in Gleason primary pattern [1, 17]: 87.5%
percentage of patients: cancer treatment with new multifocal with increased Gleason grade in the hemi-prostate [2, 6]: 4.9%
% Imp.: cancer treatment with new multifocal with increased Gleason grade in the hemi-prostate ([2]; FT 2.5 mg, <=18 mos): 69%
percentage of patients: cancer treatment with new multifocal with increased Gleason grade in the hemi-prostate [2, 7]: 10%
% Imp.: cancer treatment with new multifocal with increased Gleason grade in the hemi-prostate ([2]; FT 2.5 mg, <=36 mos): 57.4%
percentage of patients: cancer treatment with new multifocal with increased Gleason grade in the hemi-prostate [2, 8]: 17.4%
% Imp.: cancer treatment with new multifocal with increased Gleason grade in the hemi-prostate ([2]; FT 2.5 mg, <=48 mos): 44.4%
percentage of patients: cancer treatment with new multifocal with increased Gleason grade in the hemi-prostate [2, 9]: 5.1%
% Imp.: cancer treatment with new multifocal with increased Gleason grade in the hemi-prostate ([2]; FT 15 mg, <=18 mos): 67.7%
percentage of patients: cancer treatment with new multifocal with increased Gleason grade in the hemi-prostate [2, 10]: 7.1%
% Imp.: cancer treatment with new multifocal with increased Gleason grade in the hemi-prostate ([2]; FT 15 mg, <=36 mos): 69.8%
percentage of patients: cancer treatment with new multifocal with increased Gleason grade in the hemi-prostate [2, 11]: 8.3%
% Imp.: cancer treatment with new multifocal with increased Gleason grade in the hemi-prostate ([2]; FT 15 mg, <=48 mos): 73.5%
percentage of patients: cancer treatment with new multifocal with increased Gleason grade in the hemi-prostate [2, 12]: 5%
% Imp.: cancer treatment with new multifocal with increased Gleason grade in the hemi-prostate [2, 13]: 68.4%
percentage of patients: cancer treatment with new multifocal with increased Gleason grade in the hemi-prostate [2, 14]: 8.6%
% Imp.: cancer treatment with new multifocal with increased Gleason grade in the hemi-prostate [2, 15]: 63.4%
percentage of patients: cancer treatment with new multifocal with increased Gleason grade in the hemi-prostate [2, 16]: 12.8%
% Imp.: cancer treatment with new multifocal with increased Gleason grade in the hemi-prostate [2, 17]: 59.1%
percentage of patients: cancer treatment with new multifocal with Gleason upgrade, entire prostate [3, 6]: 9.8%
% Imp.: cancer treatment with new multifocal with Gleason upgrade, entire prostate ([3]; FT 2.5 mg, <=18 mos): 62.7%
percentage of patients: cancer treatment with new multifocal with Gleason upgrade, entire prostate [3, 7]: 16.7%
% Imp.: cancer treatment with new multifocal with Gleason upgrade, entire prostate ([3]; FT 2.5 mg, <=36 mos): 52.7%
percentage of patients: cancer treatment with new multifocal with Gleason upgrade, entire prostate [3, 8]: 26%
% Imp.: cancer treatment with new multifocal with Gleason upgrade, entire prostate ([3]; FT 2.5 mg, <=48 mos): 48%
percentage of patients: cancer treatment with new multifocal with Gleason upgrade, entire prostate [3, 9]: 5.1 (p = 0.02) %
% Imp.: cancer treatment with new multifocal with Gleason upgrade, entire prostate ([3]; FT 15 mg, <=18 mos): 80.6%
percentage of patients: cancer treatment with new multifocal with Gleason upgrade, entire prostate [3, 10]: 7.1 (p = 0.17) %
% Imp.: cancer treatment with new multifocal with Gleason upgrade, entire prostate ([3]; FT 15 mg, <=36 mos): 79.9%
percentage of patients: cancer treatment with new multifocal with Gleason upgrade, entire prostate [3, 11]: 8.3 (p = 0.003) %
% Imp.: cancer treatment with new multifocal with Gleason upgrade, entire prostate ([3]; FT 15 mg, <=48 mos): 83.4%
percentage of patients: cancer treatment with new multifocal with Gleason upgrade, entire prostate [3, 12]: 7.5 (p = 0.02) %
% Imp.: cancer treatment with new multifocal with Gleason upgrade, entire prostate [3, 13]: 71.5%
percentage of patients: cancer treatment with new multifocal with Gleason upgrade, entire prostate [3, 14]: 12.1 (p = 0.026) %
% Imp.: cancer treatment with new multifocal with Gleason upgrade, entire prostate [3, 15]: 65.7%
percentage of patients: cancer treatment with new multifocal with Gleason upgrade, entire prostate [3, 16]: 17 (p = 0.009) %
% Imp.: cancer treatment with new multifocal with Gleason upgrade, entire prostate [3, 17]: 66%
cellular effects [4]: selectively causes loss of cell membrane integrity, mitochondrial metabolic arrest, depletion of RNA, DNA lysis and aggregation, and cell fragmentation and cell loss
BCL pathways (activation of BIK, HRK, BCL2L10 and BCL3) [4, 18]: stimulates
caspase pathways (activation of caspases 7, 8, and 10, caspase recruitment domains 6, 11, and 14, and DIABLO) [4, 18]: stimulates
tumor necrosis factor pathways (activation of TNF1, TNFSF6, TNFSF8, TNFSF9, CD70 ligands, and TNFRSF19L, TNFRSF25, TRAF2, TRAF3, TRAF4, TRAF6 receptors) [4, 18]: stimulates
percentage of patients: new multifocal with increase Gleason primary pattern, entire prostate [5, 6]: 0 (p = 0.17) %
% Imp.: new multifocal with increase Gleason primary pattern, entire prostate ([5]; FT 2.5 mg, <=18 mos): 100%
percentage of patients: new multifocal with increase Gleason primary pattern, entire prostate [5, 7]: 0 (p = 0.074) %
% Imp.: new multifocal with increase Gleason primary pattern, entire prostate ([5]; FT 2.5 mg, <=36 mos): 100%
percentage of patients: new multifocal with increase Gleason primary pattern, entire prostate [5, 8]: 0 (p = 0.009) %
% Imp.: new multifocal with increase Gleason primary pattern, entire prostate ([5]; FT 2.5 mg, <=48 mos): 100%
percentage of patients: new multifocal with increase Gleason primary pattern, entire prostate [5, 9]: 2.9%
% Imp.: new multifocal with increase Gleason primary pattern, entire prostate ([5]; FT 15 mg, <=18 mos): 82.6%
percentage of patients: new multifocal with increase Gleason primary pattern, entire prostate [5, 10]: 4.5%
% Imp.: new multifocal with increase Gleason primary pattern, entire prostate ([5]; FT 15 mg, <=36 mos): 82%
percentage of patients: new multifocal with increase Gleason primary pattern, entire prostate [5, 11]: 13.3%
% Imp.: new multifocal with increase Gleason primary pattern, entire prostate ([5]; FT 15 mg, <=48 mos): 62.7%
percentage of patients: new multifocal with increase Gleason primary pattern, entire prostate [5, 12]: 1.4 (p = 0.049) %
% Imp.: new multifocal with increase Gleason primary pattern, entire prostate [5, 13]: 91.6%
percentage of patients: new multifocal with increase Gleason primary pattern, entire prostate [5, 14]: 2.1 (p = 0.0031) %
% Imp.: new multifocal with increase Gleason primary pattern, entire prostate [5, 15]: 91.6%
percentage of patients: new multifocal with increase Gleason primary pattern, entire prostate [5, 16]: 6.5 (p = 0.012) %
% Imp.: new multifocal with increase Gleason primary pattern, entire prostate [5, 17]: 81.8%
